Measurements as given in US9873690B2, “3-indol substituted derivatives, pharmaceutical compositions and methods for use” (Pfizer Inc., priority 2015, dated 2018).

What follows are molecules tested against T1, hTDO2 (Homo sapiens, UniProt P48775) (assay: Cellular assay for TDO2 activity determination in A172 cells). Details: human glioblastoma A172 cells naturally expressing hTDO2; overnight incubation; kynurenine by absorbance at 480 nm.
T1 construct: endogenous in cells; host or cells: A172 human brain glioblastoma cells (ATCC CRL-1620)
T1 sequence (P48775 whole entry): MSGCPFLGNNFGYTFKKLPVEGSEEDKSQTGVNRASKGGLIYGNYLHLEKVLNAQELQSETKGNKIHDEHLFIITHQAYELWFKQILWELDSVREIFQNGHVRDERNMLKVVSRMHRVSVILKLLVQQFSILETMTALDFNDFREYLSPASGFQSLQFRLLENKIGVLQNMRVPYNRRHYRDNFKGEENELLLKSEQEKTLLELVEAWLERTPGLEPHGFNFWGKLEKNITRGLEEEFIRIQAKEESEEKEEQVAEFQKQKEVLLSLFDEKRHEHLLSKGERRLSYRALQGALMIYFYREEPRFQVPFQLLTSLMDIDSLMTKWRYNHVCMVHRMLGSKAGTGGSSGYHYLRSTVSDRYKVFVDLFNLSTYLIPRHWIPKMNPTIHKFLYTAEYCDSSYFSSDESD
Assay type: cell-based
Experimental: The compounds of formula I inhibit the activity of human TDO2 in cells that constitutively express TDO2, such as A172 cells. A172 is a cell line derived from human brain glioblastoma cells. The cells are available from the American Type Culture Collection (ATCC®) as CRL-1620™.
The assay (adapted from Pilotte L et al., Proc Natl Acad Sci USA, 2012, 109(7), 2497-502) was performed in 96-well flat bottom plates seeded with human glioblastoma A172 cells, naturally expressing hTDO2 (prepared as described in Tilman et al., Mol Cancer, 2007, 17(6), 80), at a concentration of 1.25×10^4 cells/well in a final volume of 200 μL. To determine TDO, the cells were incubated overnight at 37° C. at 5% CO2 in IMDM (Invitrogen) supplemented with 2% FBS and 2% penicillin/streptomycin in the presence of the compounds of the present invention, at different concentrations.
The plates were then centrifuged 5 min at 1000 rpm, and 100 μL of the supernatant were collected in a conical plate, 30 μL of TCA 30% were added and a further centrifuged at 3000×g for 10 minutes. 100 μL of the supernatant were collected in a flat bottomed plate and 100 μL of 2% (w/v) 4-(dimethylamino)-benzaldehyde in acetic acid and incubated for 5 min at room temperature. Kynurenine concentrations were determined by measuring the absorbance at 480 nm. A standard curve was made with pure kynurenine. The TDO activity was measured as described above using ten serial concentrations of the compounds of the present invention. Data were fitted using the Prism™ software (GraphPad Software, Inc.) using standard parameters.
The biological activity of representative compounds in human brain glioblastoma cells as determined in the above-referenced assay is summarized in the following table: […]
CC1c2cc(-c3c[nH]c4cc(F)ccc34)ccc2S(=O)(=O)N1CCC(=O)N1CCNCC1 (single isomer, unassigned; (+)) [Example 49, (+)-3-(5-(6-fluoro-1H-indol-3-yl)-3-methyl-1,1-dioxido-benzo [d]isothiazol-2(3H)-yl)-1-(piperazin-1-yl)propan-1-one] gave an IC50 of 91 nM.
CC1c2cc(-c3c[nH]c4cc(F)ccc34)ccc2S(=O)(=O)N1C1CCNCC1 (single isomer, unassigned; (+)) [Example 52, (+)-5-(6-fluoro-1H-indol-3-yl)-3-methyl-2-(piperidin-4-yl)-2,3-dihydrobenzo[d]isothiazole 1,1-dioxide] gave an IC50 of 563 nM.
Work on CC1c2cc(-c3c[nH]c4cc(F)ccc34)ccc2S(=O)(=O)N1CCS(C)(=O)=O (single isomer, unassigned; (+)) [Example 53, (+)-5-(6-fluoro-1H-indol-3-yl)-3-methyl-2-(2-(methylsulfonyl)ethyl)-2,3-dihydrobenzo[d]isothiazole 1,1-dioxide] yielded an IC50 of 70 nM.
Work on CC1c2cc(-c3c[nH]c4cc(F)ccc34)ccc2S(=O)(=O)N1CC[S+](C)[O-] (single isomer, unassigned; (+)) [Example 55, (+)-5-(6-fluoro-1H-indol-3-yl)-3-methyl-2-(2-(methylsulfinyl)ethyl)-2,3-dihydrobenzo[d]isothiazole 1,1-dioxide] yielded an IC50 of 76 nM.
CC1c2cc(-c3c[nH]c4cc(F)ccc34)ccc2S(=O)(=O)N1CC[S+](C)[O-] (single isomer, unassigned; (+)) [Example 58, (+)-5-(6-fluoro-1H-indol-3-yl)-3-methyl-2-(2-(methylsulfinyl)ethyl)-2,3-dihydrobenzo[d]isothiazole 1,1-dioxide] showed an IC50 of 267 nM.
Molecule CNS(=O)(=O)CCN1C(C)c2cc(-c3c[nH]c4cc(F)ccc34)ccc2S1(=O)=O (single isomer, unassigned; (+)) [Example 60, (+)-2-(5-(6-fluoro-1H-indol-3-yl)-3-methyl-1,1-dioxidobenzo[d]isothiazol-2(3H)-yl)-N-methylethane-1-sulfonamide] has an IC50 of 133 nM.
For CC1c2cc(-c3c[nH]c4cc(F)ccc34)ccc2S(=O)(=O)N1CCS(N)(=O)=O (single isomer, unassigned; (+)) [Example 61, (+)-2-(5-(6-fluoro-1H-indol-3-yl)-3-methyl-1,1-dioxidobenzo[d]isothiazol-2(3H)-yl)ethane-1-sulfonamide], the IC50 was 309 nM.
In the case of CC1c2cc(-c3c[nH]c4cc(F)ccc34)ccc2S(=O)(=O)N1CCO (single isomer, unassigned; (+)) [Example 63, (+)-5-(6-fluoro-1H-indol-3-yl)-2-(2-hydroxyethyl)-3-methyl-2,3-dihydrobenzo[d]isothiazole 1,1-dioxide], the IC50 is reported as 70 nM.
CC1c2cc(-c3c[nH]c4cc(F)ccc34)ccc2S(=O)(=O)N1CCN1CCNCC1=O (single isomer, unassigned; (+)) [Example 66, (+)1-(2-(5-(6-fluoro-1H-indol-3-yl)-3-methyl-1,1-dioxidobenzo[d]isothiazol-2(3H)-yl)ethyl)piperazin-2-one] was tested, and the IC50 was 244 nM.
Molecule Cc1cc(O)n(CCN2C(C)c3cc(-c4c[nH]c5cc(F)ccc45)ccc3S2(=O)=O)n1 (single isomer, unassigned; (+)) [Example 67, (+)-5-(6-fluoro-1H-indol-3-yl)-2-(2-(5-hydroxy-3-methyl-1H-pyrazol-1-yl)ethyl)-3-methyl-2,3-dihydrobenzo[d]isothiazole 1,1-dioxide] has an IC50 of 9500 nM.
Molecule CC1c2cc(-c3c[nH]c4cc(F)ccc34)ccc2S(=O)(=O)N1CCN1CCOC1=O (single isomer, unassigned; (+)) [Example 69, (+)-3-(2-(5-(6-fluoro-1H-indol-3-yl)-3-methyl-1,1-dioxidobenzo[d]isothiazol-2(3H)-yl)ethyl)oxazolidin-2-one] has an IC50 of 264 nM.
CC(=O)N1CCC(N2C(C)c3cc(-c4c[nH]c5cc(F)ccc45)ccc3S2(=O)=O)CC1 (single isomer, unassigned; (+)) [Example 71, (+)-1-(4-(5-(6-fluoro-1H-indol-3-yl)-3-methyl-1,1-dioxidobenzo[d]isothiazol-2(3H)-yl)piperidin-1-yl)ethanone] gave an IC50 of 342 nM.
In the case of CC(=O)N1CCC(N2C(C)c3cc(-c4c[nH]c5cc(F)ccc45)ccc3S2(=O)=O)C1 (single isomer, unassigned; (+)) [Example 73, (+)-1-(3-(5-(6-fluoro-1H-indol-3-yl)-3-methyl-1,1-dioxidobenzo[d]isothiazol-2(3H)-yl)pyrrolidin-1-yl)ethanone], the IC50 is reported as 246 nM.
For CC(=O)N1CCC(N2C(C)c3cc(-c4c[nH]c5cc(F)ccc45)ccc3S2(=O)=O)C1 (single isomer, unassigned; (+)) [Example 74, (+)-1-(3-(5-(6-fluoro-1H-indol-3-yl)-3-methyl-1,1-dioxidobenzo[d]isothiazol-2(3H)-yl)pyrrolidin-1-yl)ethanone], the IC50 was 254 nM.
CC1c2cc(-c3c[nH]c4cc(F)ccc34)ccc2S(=O)(=O)N1CC1CCNCC1 (single isomer, unassigned; (+)) [Example 78, (+)-5-(6-fluoro-1H-indol-3-yl)-3-methyl-2-(piperidin-4-ylmethyl)-2,3-dihydrobenzo[d]isothiazole 1,1-dioxide] was tested, and the IC50 was 174 nM.
With CC1c2cc(-c3c[nH]c4cc(F)ccc34)ccc2S(=O)(=O)N1CC1CCN(C)CC1 (single isomer, unassigned; (+)) [Example 80, (+)-5-(6-fluoro-1H-indol-3-yl)-3-methyl-2-((1-methylpiperidin-4-yl)methyl)-2,3-dihydrobenzo[d]isothiazole 1,1-dioxide] the IC50 was 56 nM.
CC1c2cc(-c3c[nH]c4cc(F)ccc34)ccc2S(=O)(=O)N1C[C@]1(C)CCC(=O)N1 (single isomer, unassigned; (+)) [Example 81] gave an IC50 of 473 nM.
CC1c2cc(-c3c[nH]c4cc(F)ccc34)ccc2S(=O)(=O)N1C[C@]1(C)CCC(=O)N1 (single isomer, unassigned; (+)) [Example 82] showed an IC50 of 61 nM.
With CC1c2cc(-c3c[nH]c4cc(F)ccc34)ccc2S(=O)(=O)N1Cc1ncn(C)n1 (single isomer, unassigned; (+)) [Example 86, (+)-5-(6-fluoro-1H-indol-3-yl)-3-methyl-2-((1-methyl-1H-1,2,4-triazol-3-yl)methyl)-2,3-dihydrobenzo[d]isothiazole 1,1-dioxide] the IC50 was 97 nM.
CC1c2cc(-c3c[nH]c4cc(F)ccc34)ccc2S(=O)(=O)N1CC1(C)COC(=O)N1 (single isomer, unassigned; (+)) [Example 89, (+)-4-((5-(6-fluoro-1H-indol-3-yl)-3-methyl-1,1-dioxidobenzo[d]isothiazol-2(3H)-yl)methyl)-4-methyloxazolidin-2-one] was tested, and the IC50 was 58 nM.
Work on CC1c2cc(-c3c[nH]c4cc(F)ccc34)ccc2S(=O)(=O)N1CC1(C)COC(=O)N1 (single isomer, unassigned; (+)) [Example 90, (+)-4-((5-(6-fluoro-1H-indol-3-yl)-3-methyl-1,1-dioxidobenzo[d]isothiazol-2(3H)-yl)methyl)-4-methyloxazolidin-2-one] yielded an IC50 of 358 nM.
CC1c2cc(-c3c[nH]c4cc(F)ccc34)ccc2S(=O)(=O)N1C1CNC1 (single isomer, unassigned; (+)) [Example 92, (+)-2-(azetidin-3-yl)-5-(6-fluoro-1H-indol-3-yl)-3-methyl-2,3-dihydrobenzo[d]isothiazole 1,1-dioxide] showed an IC50 of 27 nM.
